From patent US20100226853A1 (priority 2007, published 2010)

Legend:
[1] = Protein binding assay, serum; type: in vitro ADME; conditions: fresh human serum
Experimental: (§1) Protein binding of the radiotracers were determined adding 37 kBq (1 μCi) of each radioligand to samples of 1% bovine serum albumin and 1 mL of fresh human serum. The protein was precipitated by adding 1 mL of ice cold 20% trichloroacetic acid and the suspension centrifuged and washing with 1 mL of 20% ice cold trichloroacetic acid. The protein pellets and supernatants were counted in a gamma counter to determine the protein binding of the radioligands.

PDGFR— = target: T1, PDGFR— (Homo sapiens, UniProt P16234); assay: QuickScout ELISA kinase panel; type: biochemical; conditions: Compound 5 at 10 nM
T1 construct: purchased Carna Biosciences (Kobe, Japan), QuickScout service
T1 sequence (P16234 550-1089 limits assumed): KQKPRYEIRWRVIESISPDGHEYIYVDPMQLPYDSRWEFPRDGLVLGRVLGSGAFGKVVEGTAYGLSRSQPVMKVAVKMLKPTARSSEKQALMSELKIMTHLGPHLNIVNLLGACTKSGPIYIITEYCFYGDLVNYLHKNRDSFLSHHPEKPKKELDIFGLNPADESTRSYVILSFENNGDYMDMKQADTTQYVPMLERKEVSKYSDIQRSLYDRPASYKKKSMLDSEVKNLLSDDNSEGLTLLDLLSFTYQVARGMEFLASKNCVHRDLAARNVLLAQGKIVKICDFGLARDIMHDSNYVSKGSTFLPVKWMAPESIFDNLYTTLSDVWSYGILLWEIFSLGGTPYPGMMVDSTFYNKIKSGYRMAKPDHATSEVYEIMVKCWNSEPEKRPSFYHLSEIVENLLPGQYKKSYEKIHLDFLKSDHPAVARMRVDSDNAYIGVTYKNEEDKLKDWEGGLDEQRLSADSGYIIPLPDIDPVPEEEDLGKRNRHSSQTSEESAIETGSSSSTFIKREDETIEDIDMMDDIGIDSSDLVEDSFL
Excerpt: (§2) . […] An ELISA-based assay was used in which the phosphorylation of an oligopeptide substrate was detected by an HRP-conjugated anti-p-Tyr (PY20) probe. […]. The data appears in Table 2 in Example 3.

EphA2 = target: T2, EphA2 (Homo sapiens, UniProt P29317); assay: QuickScout ELISA kinase panel; type: biochemical; conditions: Compound 5 at 10 nM
T2 construct: purchased Carna Biosciences (QuickScout service)
T2 sequence (P29317 24-976): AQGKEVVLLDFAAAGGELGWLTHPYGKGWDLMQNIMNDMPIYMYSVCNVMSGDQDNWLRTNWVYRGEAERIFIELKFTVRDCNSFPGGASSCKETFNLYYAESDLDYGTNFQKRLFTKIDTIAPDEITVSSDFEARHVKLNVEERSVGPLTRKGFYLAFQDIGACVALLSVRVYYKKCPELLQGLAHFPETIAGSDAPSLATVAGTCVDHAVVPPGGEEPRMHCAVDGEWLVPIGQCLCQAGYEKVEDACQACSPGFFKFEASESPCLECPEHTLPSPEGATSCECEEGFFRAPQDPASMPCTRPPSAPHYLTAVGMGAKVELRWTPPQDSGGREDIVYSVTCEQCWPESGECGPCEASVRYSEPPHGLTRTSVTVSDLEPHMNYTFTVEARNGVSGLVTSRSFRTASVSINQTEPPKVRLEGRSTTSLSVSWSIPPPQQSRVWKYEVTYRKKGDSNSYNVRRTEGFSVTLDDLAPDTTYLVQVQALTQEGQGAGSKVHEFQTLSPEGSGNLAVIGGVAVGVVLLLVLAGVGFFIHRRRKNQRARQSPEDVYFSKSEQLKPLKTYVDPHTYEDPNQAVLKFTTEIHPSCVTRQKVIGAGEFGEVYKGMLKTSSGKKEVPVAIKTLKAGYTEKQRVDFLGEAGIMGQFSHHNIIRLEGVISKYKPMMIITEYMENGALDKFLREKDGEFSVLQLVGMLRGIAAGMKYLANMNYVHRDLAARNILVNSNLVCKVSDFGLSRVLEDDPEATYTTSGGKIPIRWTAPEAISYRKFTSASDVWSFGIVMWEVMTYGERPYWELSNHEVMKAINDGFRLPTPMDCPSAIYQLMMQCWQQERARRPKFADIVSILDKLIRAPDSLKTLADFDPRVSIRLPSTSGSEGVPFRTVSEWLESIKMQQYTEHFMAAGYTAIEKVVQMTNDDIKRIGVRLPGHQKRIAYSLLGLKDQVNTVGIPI
Excerpt: as §2

ABL = ABL (Homo sapiens, UniProt P00519); type: biochemical; set-up: purchased Invitrogen; conditions: mean of three experiments; read-out: IC50, Abl protein
Chain of ABL (P00519 whole entry): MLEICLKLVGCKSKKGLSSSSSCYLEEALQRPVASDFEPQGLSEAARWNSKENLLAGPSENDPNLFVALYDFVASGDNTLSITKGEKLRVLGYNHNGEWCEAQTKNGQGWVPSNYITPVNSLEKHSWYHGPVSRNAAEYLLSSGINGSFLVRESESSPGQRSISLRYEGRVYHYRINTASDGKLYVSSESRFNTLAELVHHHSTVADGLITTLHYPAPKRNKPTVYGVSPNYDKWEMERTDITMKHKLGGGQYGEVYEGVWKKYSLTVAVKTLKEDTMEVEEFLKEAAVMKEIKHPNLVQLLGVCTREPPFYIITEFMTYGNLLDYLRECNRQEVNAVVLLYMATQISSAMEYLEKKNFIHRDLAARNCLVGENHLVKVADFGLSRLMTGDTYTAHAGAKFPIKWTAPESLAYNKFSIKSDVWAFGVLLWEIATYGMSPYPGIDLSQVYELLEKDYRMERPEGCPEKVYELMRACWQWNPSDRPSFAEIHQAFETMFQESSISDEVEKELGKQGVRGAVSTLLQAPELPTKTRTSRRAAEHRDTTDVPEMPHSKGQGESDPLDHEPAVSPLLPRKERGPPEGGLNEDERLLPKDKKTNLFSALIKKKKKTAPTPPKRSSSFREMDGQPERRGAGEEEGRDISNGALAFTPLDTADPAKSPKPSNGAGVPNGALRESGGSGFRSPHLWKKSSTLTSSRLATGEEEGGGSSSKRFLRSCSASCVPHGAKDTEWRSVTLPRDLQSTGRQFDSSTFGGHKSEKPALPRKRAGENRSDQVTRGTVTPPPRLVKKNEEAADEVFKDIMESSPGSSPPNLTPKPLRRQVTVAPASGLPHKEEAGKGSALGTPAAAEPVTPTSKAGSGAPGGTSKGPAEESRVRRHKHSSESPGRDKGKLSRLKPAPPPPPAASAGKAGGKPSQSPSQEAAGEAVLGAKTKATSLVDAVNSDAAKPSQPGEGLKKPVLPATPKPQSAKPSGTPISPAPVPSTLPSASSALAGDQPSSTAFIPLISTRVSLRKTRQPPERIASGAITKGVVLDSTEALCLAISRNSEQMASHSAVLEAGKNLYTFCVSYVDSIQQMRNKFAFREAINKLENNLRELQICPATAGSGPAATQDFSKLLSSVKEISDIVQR
Experimental: (§3) Kinase was preincubated with inhibitor at 37° C. for 10 min prior to starting the reaction upon addition of ATP; Assay was carried out in 384 well clear plates (Corning) and absorbance was measured on SpectraMax plate reader (Molecular Devices). Reaction rates were plotted against inhibitor concentration and fitted using SigmaPlot 9.0 (Systat Software Inc.).

[2] = Octanol/water partition coefficient determination; type: physicochemical; conditions: n-octanol/water
SRC = SRC (Homo sapiens, UniProt P12931); type: biochemical; conditions: read-out: IC50, Src protein
Chain of SRC (P12931 whole entry): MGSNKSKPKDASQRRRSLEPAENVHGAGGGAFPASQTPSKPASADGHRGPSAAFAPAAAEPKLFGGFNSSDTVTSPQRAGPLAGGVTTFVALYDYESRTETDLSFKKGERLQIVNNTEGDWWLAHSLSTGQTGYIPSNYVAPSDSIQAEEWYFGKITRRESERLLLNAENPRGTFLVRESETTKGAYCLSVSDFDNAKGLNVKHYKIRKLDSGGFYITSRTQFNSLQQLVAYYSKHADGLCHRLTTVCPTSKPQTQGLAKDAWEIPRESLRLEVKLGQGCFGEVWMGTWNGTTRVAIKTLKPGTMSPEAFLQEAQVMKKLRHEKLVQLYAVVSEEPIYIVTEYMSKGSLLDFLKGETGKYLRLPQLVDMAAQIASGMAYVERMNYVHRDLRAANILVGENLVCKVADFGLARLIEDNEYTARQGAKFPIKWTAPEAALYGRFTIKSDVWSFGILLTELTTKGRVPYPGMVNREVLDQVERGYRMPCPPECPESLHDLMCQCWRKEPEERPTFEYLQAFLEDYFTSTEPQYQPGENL
Experimental: as §3

1% bovine serum albumin = target: T3, 1% bovine serum albumin (Bos taurus, UniProt P02769); assay: Protein binding assay, BSA; type: in vitro ADME
T3 construct: from tissue; host or cells: bovine serum (from the protein's name)
T3 sequence (P02769 25-607): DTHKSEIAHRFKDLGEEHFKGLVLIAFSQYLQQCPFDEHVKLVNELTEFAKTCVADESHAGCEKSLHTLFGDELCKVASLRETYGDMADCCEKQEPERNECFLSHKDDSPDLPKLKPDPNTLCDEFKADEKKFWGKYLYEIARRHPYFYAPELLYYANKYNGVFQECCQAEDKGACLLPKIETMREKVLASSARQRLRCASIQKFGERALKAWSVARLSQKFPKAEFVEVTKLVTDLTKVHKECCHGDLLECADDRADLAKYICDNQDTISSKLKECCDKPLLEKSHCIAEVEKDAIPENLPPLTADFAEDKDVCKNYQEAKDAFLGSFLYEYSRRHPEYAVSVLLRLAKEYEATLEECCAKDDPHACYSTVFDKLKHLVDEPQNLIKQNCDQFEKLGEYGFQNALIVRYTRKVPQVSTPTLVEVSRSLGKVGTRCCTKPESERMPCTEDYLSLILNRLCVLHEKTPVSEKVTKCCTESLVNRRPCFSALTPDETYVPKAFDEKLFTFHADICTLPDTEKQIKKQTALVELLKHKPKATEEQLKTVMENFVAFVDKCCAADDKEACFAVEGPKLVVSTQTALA
Experimental: as §1

M07e cells = assay: Cellular proliferation, [3H]thymidine uptake, Kit ligand dependent growth; type: cell-based; conditions: Homo sapiens, M-07e, read-out: IC50, M07e cells proliferation
Experimental: The immortalized human hematopoietic Philadelphia chromosome-positive cytokine independent R10(−) M07e^p210 cell line (46) was maintained in Iscove's modified Dulbecco's medium (Life Technologies, Inc., Grand Island, N.Y.) containing 10% FCS (Hyclone, Logan, Utah). The parental M07e megakaryoblastic cell line was a kind gift of Brian Druker and was maintained in the presence of 50 ng/mL kit ligand (SCF) as described (46-47) K562 was obtained from the ATCC. K562 was maintained in suspension in 90% RPMI 1640 medium supplemented with 10% FBS, 2 mM L-glutamine, 10 mM HEPES, 1 mM sodium pyruvate, 1.5 g/L sodium bicarbonate, 4.5 g/L […], 10% FBS, 100 IU/mL penicillin and 100 μg/ml streptomycin. Tumor cell cultures were maintained in a humidified atmosphere with 5% CO2 at 37° C. (NuAire).
. Data points for all assays were obtained in triplicate, and background incorporation from cell-free wells was determined and subtracted from all data points. The data was analyzed using a non-linear regression fit to a sigmoidal dose-response curve using Prism 4 (GraphPad Software, Inc).

## Cc1nc(Nc2ncc(C(=O)Nc3c(C)cccc3Cl)s2)cc(N2CCN(CCF)CC2)n1 [Compound 5, N-(2-Chloro-6-methylphenyl)-2-(6-(4-(2-fluoroethyl)piperazin-1-yl)-2-methylpyrimidin-4-ylamino)thiazole-5-carboxamide]
[1]
  protein bound in serum: 98.5±1.0%
PDGFR—
  inhibition at 0.01 µM: 86%
EphA2
  inhibition at 0.01 µM: 98.1%
ABL
  IC50: 9.1 ± 0.8 nM
[2]
  logD at 2 h: 2.1 ± 0.6
SRC
  IC50: 3.5 ± 2.2 nM
1% bovine serum albumin
  protein bound in 1% BSA: 99.0±0.3%
M07e cells
  IC50: 1.1 nM
